Results as given in US11214577B2, “Morphinans useful for treating medical disorders” (priority 2019, dated 2022).
Where two headings read alike, the source gives them in different places.

Legend:
[1] = target: T1, recombinant human kappa opioid receptor (Homo sapiens, UniProt P41145); assay: biochemical; conditions: membranes of HEK293 cells; radioligand [3H]diprenorphine 0.5 nM; read-out: Binding Affinity Kappa IC50
T1 construct: expressed in transfected cells; host or cells: HEK293 (membranes)

[2] = target: T2, recombinant human mu opioid receptor (Homo sapiens, UniProt P35372); assay: Opioid receptor radioligand binding assay, mu; conditions: for IC50: radioligand [3H]DAMGO 0.5 nM; for Selectivity μ/k: ratio of Mu IC50 to Kappa IC50
T2 construct: expressed in transfected cells; host or cells: HEK293 (membranes)

[3] = target: T3, recombinant human delta opioid receptor (Homo sapiens, UniProt P41143); assay: Opioid receptor radioligand binding assay, delta; conditions: for IC50: radioligand [3H]DADLE 0.5 nM; for Selectivity δ/k: ratio of Delta IC50 to Kappa IC50
T3 construct: expressed in transfected cells; host or cells: HEK293 (membranes)

[4] = target: T1, recombinant human kappa opioid receptor; assay: cell-based; type: cell-based; conditions: for EC50: read-out: Cell Assay (FLIPR Calcium) Kappa EC50
[5] = membranes of HEK293 cells, read-out: Binding Affinity Mu IC50
[6] = membranes of HEK293 cells, read-out: Binding Affinity Delta IC50
[7] = Binding Affinity Mu IC50, membranes of HEK293 cells
[8] = Binding Affinity Delta IC50, membranes of HEK293 cells

T1 sequence (P41145 whole entry): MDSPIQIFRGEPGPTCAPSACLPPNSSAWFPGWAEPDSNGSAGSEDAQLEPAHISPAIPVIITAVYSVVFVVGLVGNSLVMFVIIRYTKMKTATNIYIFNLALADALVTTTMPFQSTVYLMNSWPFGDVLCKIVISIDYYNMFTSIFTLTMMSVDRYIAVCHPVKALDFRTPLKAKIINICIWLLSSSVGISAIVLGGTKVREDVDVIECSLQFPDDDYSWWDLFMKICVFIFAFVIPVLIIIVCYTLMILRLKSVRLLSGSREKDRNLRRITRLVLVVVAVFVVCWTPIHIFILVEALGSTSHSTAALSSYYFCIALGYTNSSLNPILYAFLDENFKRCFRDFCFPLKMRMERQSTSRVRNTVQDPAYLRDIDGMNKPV
T3 sequence (P41143 whole entry): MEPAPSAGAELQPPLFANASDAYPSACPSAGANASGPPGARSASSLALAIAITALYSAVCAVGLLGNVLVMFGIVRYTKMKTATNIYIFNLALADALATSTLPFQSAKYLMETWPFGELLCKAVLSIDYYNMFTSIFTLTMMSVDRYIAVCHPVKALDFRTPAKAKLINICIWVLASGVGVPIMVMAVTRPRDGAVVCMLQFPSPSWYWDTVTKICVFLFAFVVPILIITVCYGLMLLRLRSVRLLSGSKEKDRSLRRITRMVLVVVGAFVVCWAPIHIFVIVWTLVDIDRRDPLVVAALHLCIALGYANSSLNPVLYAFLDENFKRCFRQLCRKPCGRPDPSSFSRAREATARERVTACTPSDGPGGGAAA
T2 sequence (P35372 whole entry): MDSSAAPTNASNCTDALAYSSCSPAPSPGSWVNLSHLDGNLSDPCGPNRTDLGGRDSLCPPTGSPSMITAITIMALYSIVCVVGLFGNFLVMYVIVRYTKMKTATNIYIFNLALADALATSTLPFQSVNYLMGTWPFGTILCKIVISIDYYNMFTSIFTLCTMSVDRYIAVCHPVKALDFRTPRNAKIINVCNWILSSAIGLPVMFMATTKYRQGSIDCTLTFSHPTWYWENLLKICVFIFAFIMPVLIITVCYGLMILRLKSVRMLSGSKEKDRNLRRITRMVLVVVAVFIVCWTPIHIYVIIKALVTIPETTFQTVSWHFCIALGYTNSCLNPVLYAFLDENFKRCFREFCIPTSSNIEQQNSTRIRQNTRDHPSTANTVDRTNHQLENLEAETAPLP

| Compound | IC50 [1] | IC50 [2, 5] | Selectivity μ/k [2] | IC50 [3, 6] | Selectivity δ/k [3] | IC50 [2, 7] | IC50 [3, 8] | FLIPR calcium cell assay compared with reference ([4]; comparison in words on Table 2) | EC50 [4] |
| --- | --- | --- | --- | --- | --- | --- | --- | --- | --- |
| 17-cyclopropylmethyl-10-oxo-4,5α-epoxy-3,14β-dihydroxy-6β-((1R,2R)—N-methyl-2-(3-(4-hydroxylphenyl)-cyclopropanecarboxamido)morphinan [Compound 23b] | 0.62 nM | 73.7 nM | 118.9 | 528 nM | 1331 | – | – | – | – |
| 17-cyclopropylmethyl-10-oxo-4,5α-epoxy-3,14β-dihydroxy-6β-((1S,2S)—N-methyl-2-(3-(4-hydroxylphenyl)-cyclopropanecarboxamido)morphinan [Compound 23a] | 0.07 nM | 12.2 nM | 174.3 | 261 nM | 3731 | – | – | – | – |
| CN(C(=O)C1CC1c1ccoc1)C1CCC2(O)C3Cc4ccc(O)c5c4C2(CCN3CC2(O)CC2)C1O5 (single isomer, unassigned) [Compound 16a] | 0.94 nM | – | 1.65 | – | 5.80 | 1.55 nM | 5.46 nM | – | – |
| CN(C(=O)C1CC1c1ccoc1)C1CCC2(O)C3Cc4ccc(O)c5c4C2(CCN3CC2(O)CC2)C1O5 (single isomer, unassigned) [Compound 16b] | 6.74 nM | – | 1.07 | – | 5.05 | 7.18 nM | 34 nM | – | – |
| CN(C(=O)C1CC1c1ccsc1)C1CCC2(O)C3Cc4ccc(O)c5c4C2(CCN3CC2(O)CC2)C1O5 (single isomer, unassigned) [Compound 18a] | 0.97 nM | – | 1.63 | – | 11.3 | 1.58 nM | 10.9 nM | – | – |
| CN(C(=O)C1CC1c1ccsc1)C1CCC2(O)C3Cc4ccc(O)c5c4C2(CCN3CC2(O)CC2)C1O5 (single isomer, unassigned) [Compound 18b] | 6.15 nM | – | 12.5 | – | 19.2 | 76.8 nM | 118 nM | – | – |
| CN(C(=O)C1CC1c1ccsc1)C1CCC2(O)C3Cc4ccc(O)c5c4C2(CCN3CC2(O)CC2)C1O5 (single isomer, unassigned) [Compound 19a] | 0.17 nM | – | 8.05 | – | 96.1 | 1.37 nM | 16.3 nM | – | – |
| CN(C(=O)C1CC1c1ccc(O)cc1)C1CCC2(O)C3Cc4ccc(O)c5c4C2(CCN3CC2(O)CC2)C1O5 (single isomer, unassigned) [Compound 20a] | 102 nM | – | 1.12 | – | 1.57 | 119 nM | 161 nM | – | – |
| CN(C(=O)C1CC1c1ccc(O)cc1)C1CCC2(O)C3Cc4ccc(O)c5c4C2(CCN3CC2(O)CC2)C1O5 (single isomer, unassigned) [Compound 21a] | 0.85 nM | – | 1.47 | – | 35.6 | 1.25 nM | 30.2 nM | – | – |
| CN(C(=O)[C@H]1C[C@@H]1c1ccoc1)[C@@H]1CC[C@@]2(O)[C@H]3Cc4ccc(O)c5c4[C@@]2(CCN3CC2CC2)[C@H]1O5 [Compound 5a, 17-Cyclopropylmethyl-4,5α-epoxy-3,14β-dihydroxy-6β-((1S,2S)—N-methyl-2-(3-furyl)-cyclopropanecarboxamido)morphinan] | 0.42 nM | – | – | – | 207.59 | 10.7 nM | 86.5 nM | improved cell assays over U-69596 | 2.64 nM |
| CN(C(=O)[C@@H]1C[C@H]1c1ccoc1)[C@@H]1CC[C@@]2(O)[C@H]3Cc4ccc(O)c5c4[C@@]2(CCN3CC2CC2)[C@H]1O5 [Compound 5b, 17-Cyclopropylmethyl-4,5α-epoxy-3,14β-dihydroxy-6β-((1R,2R)—N-methyl-2-(3-furyl)-cyclopropanecarboxamido)morphinan] | 7.76 nM | – | 0.45 | – | 8.90 | 3.47 nM | 69 nM | – | 9.7 nM |
| CN(C(=O)[C@H]1C[C@@H]1c1ccoc1)[C@H]1CC[C@@]2(O)[C@H]3Cc4ccc(O)c5c4[C@@]2(CCN3CC2CC2)[C@H]1O5 [Compound 7a, 17-Cyclopropylmethyl-4,5α-epoxy-3,14β-dihydroxy-6α-((1S,2S)—N-methyl-2-(3-furyl)-cyclopropanecarboxamido)morphinan] | 0.05 nM | – | 5.85 | – | 12.6 | 0.3 nM | 0.66 nM | – | 6.86 nM |
| CN(C(=O)[C@@H]1C[C@H]1c1ccoc1)[C@H]1CC[C@@]2(O)[C@H]3Cc4ccc(O)c5c4[C@@]2(CCN3CC2CC2)[C@H]1O5 [Compound 7b, 17-Cyclopropylmethyl-4,5α-epoxy-3,14β-dihydroxy-6α-((1R,2R)—N-methyl-2-(3-furyl)-cyclopropanecarboxamido)morphinan] | 0.24 nM | – | 2.16 | – | 2.82 | 0.52 nM | 0.68 nM | – | 3.76 nM |
| CN(C(=O)[C@H]1C[C@@H]1c1ccoc1)[C@@H]1CC[C@@]2(O)[C@H]3Cc4ccc(O)c5c4[C@@]2(CCN3CC2(O)CC2)[C@H]1O5 [Compound 17a, 17-(1-hydroxylcyclopropylmethyl)-4,5α-epoxy-3,14β-dihydroxy-6β-((1S,2S)—N-methyl-2-(3-furyl)-cyclopropanecarboxamido)morphinan] | 1.22 nM | – | 4.07 | – | 35.3 | 4.96 nM | 43.1 nM | – | – |
| CN(C(=O)[C@@H]1C[C@H]1c1ccoc1)[C@@H]1CC[C@@]2(O)[C@H]3Cc4ccc(O)c5c4[C@@]2(CCN3CC2(O)CC2)[C@H]1O5 [Compound 17b] | 6.49 nM | – | 6.99 | – | 11.0 | 45.4 nM | 71.6 nM | – | – |
| CN(C(=O)[C@@H]1C[C@H]1c1ccsc1)[C@@H]1CC[C@@]2(O)[C@H]3Cc4ccc(O)c5c4[C@@]2(CCN3CC2(O)CC2)[C@H]1O5 [Compound 19b] | 0.46 nM | – | 13.0 | – | 319 | 5.98 nM | 147 nM | – | – |
| CN(C(=O)[C@@H]1C[C@H]1c1ccc(O)cc1)[C@H]1CC[C@@]2(O)[C@H]3Cc4ccc(O)c5c4[C@@]2(CCN3CC2(O)CC2)[C@H]1O5 [Compound 20b] | 16 nM | – | 0.50 | – | 0.73 | 8.08 nM | 11.8 nM | – | – |
| CN(C(=O)[C@@H]1C[C@H]1c1ccc(O)cc1)[C@@H]1CC[C@@]2(O)[C@H]3Cc4ccc(O)c5c4[C@@]2(CCN3CC2(O)CC2)[C@H]1O5 [Compound 21b] | > 200 nM | – | <0.57 | – | <1.93 | 114 nM | 385 nM | – | – |
